What was measured:
[1] = Cell proliferation inhibition (cytotoxicity) by MTT assay, HEK293A; assay type: cell-based; details: human, HEK293A cells, 48 hours after administration, average of three independent repeated experiments
Procedure: The human embryonic kidney cell line HEK293A was subcultured in a medium containing penicillin (final concentration: 100 U/mL), streptomycin (final concentration: 100 μg/mL) and 10% FBS, in a humidified atmosphere of 95% air and 5% carbon dioxide at a constant temperature of 37° C. When the cells were 90% confluent, the old culture medium was discarded and the cells were washed twice with 2 mL of PBS. After the PBS was discarded, 2 mL of 0.25% trypsin-0.25% EDTA mixed digestion solution was added. When it was observed under a microscope that the cells became round, 2 mL of complete culture medium was added quickly to stop the digestion. The cell solution was pipetted gently to collect cells. The cells were centrifuged at 800 rpm, 4° C. for 5 min, the supernatant was discarded, the cells were resuspended in complete culture medium and cultured in bottles, and the medium was changed every other day.
(§1) The cell proliferation inhibition ability of compounds was tested by MTT assay. HepG2 and HEK293 cells were inoculated in a 96-well plate at a density of 30%. After incubation for 18 h to allow the cells to adhere, the original culture medium was removed, a given concentration of the compound to be tested was added to each well, and an equal amount of DMSO was added to the control group. Three replicate wells were set up for each compound. 48 hours after administration, cell viability was tested by MTT assay. The blank group was the wells where no cells were added, and then its OD value was read at 490 nm with a microplate reader. Calculation formula for cell viability: cell viability (%)=(ODto be tested−ODblank)/(ODcontrol−ODblank)×100.

FXR = target: T1, FXR (Homo sapiens, UniProt Q96RI1); assay: FXR antagonist screening by TR-FRET (LanthaScreen TR-FRET FXR co-activation assay kit); assay type: biochemical; details: Table 1.1, FXR antagonistic activity; TR-FRET with CDCA; geometric means of at least two independent runs
T1 construct: 5 μL of 20 nM FXR-LBD Complete Coregulator buffer G; purchased ThermoFisher PV4833
T1 sequence (Q96RI1 262-486 limits assumed): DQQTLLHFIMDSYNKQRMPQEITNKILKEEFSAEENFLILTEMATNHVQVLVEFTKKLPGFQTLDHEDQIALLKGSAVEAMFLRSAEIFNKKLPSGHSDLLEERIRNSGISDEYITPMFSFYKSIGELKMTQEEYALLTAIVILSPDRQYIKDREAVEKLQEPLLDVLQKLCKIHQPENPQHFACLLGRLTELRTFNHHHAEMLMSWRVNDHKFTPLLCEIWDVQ
In short: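 FXR-LBD (20 nM working solution) mixed with compound, CDCA (200 μM working solution) as agonist, Fluorescein-SRC2-2 and Tb-anti-GST antibody in Coregulator buffer G; 10 h at room temperature. Coactivator recruitment read by TR-FRET, triplicate wells.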

[2] = Cell proliferation inhibition (cytotoxicity) by MTT assay, HepG2; assay type: cell-based; details: human, HepG2 cells, 48 hours after administration, average of three independent repeated experiments
Procedure: The human liver cancer cell line HepG2 was subcultured in a DMEM medium containing penicillin (final concentration: 100 U/mL), streptomycin (final concentration: 100 μg/mL) and 10% FBS under the same conditions as those in the subculture of HEK293A.
as §1

HepG2 cells = assay: Testing of TC/TG in HepG2 cells incubated with FFA (oleic acid and palmitate); assay type: cell-based, human; details: 24 h
Procedure: Cell TC/TG was tested using Nanjing Jiancheng TG test kit and TC test kit. HepG2 cells were incubated with 0.5 mmol/L FFA (oleic acid and palmitate mixed at a ratio of 2:1) and a solvent or different concentrations (20 μM, 40 μM, 80 μM) of compounds for 24 h. The culture medium was discarded and the cells were washed once with 0.01 M PBS (pH 7.4). The cells were scraped off with a cell scraper. 2-5 mL of 0.01 M PBS (pH 7.4) was then added. The cell suspension was collected and then centrifuged at 1000×g, 4° C. for 10 min. According to the ratio of 10^6 cells/300-500 μL of homogenization medium, isopropyl alcohol was added for mechanical homogenization, such that the cells were thoroughly disrupted until there was no obvious cell precipitation. The cell solution was centrifuged at 10000×g, 4° C. for 10 min. The supernatant was taken and placed on ice for testing. 2.5 μL of distilled water, standard products or samples were well mixed with […] respectively. After incubation at 37° C. for 10 min, the absorbance value of each well was tested with a microplate reader at 510 nm. Calculation formula for TC/TG concentration: sample concentration (mmol/g protein)=(ODsample−ODblank)/(ODstandard−ODblank)×standard product concentration (mmol/L)/protein concentration (g protein/L).
Preparation of protein standard: a. 1.2 mL of standard protein solution was added to a tube of protein standard (30 mg BSA), and a 25 mg/mL standard protein solution was obtained after the protein standard was thoroughly dissolved. b. An appropriate amount of 25 mg/mL protein standard was diluted to the final concentration of 0.5 mg/mL. Preparation of BCA working solution: according to the number of samples, reagent A for the BCA working solution and reagent B for BCA working solution (v/v: 50:1) were well mixed to prepare an appropriate amount of BCA working solution. Determination of protein concentration: a. 0, 1, 2, 4, 8, 12, 16, and 20 μL of the protein standard were respectively added into the standard wells of the 96-well plate, and the diluted standard solution was then added to make up to 20 μL, which is equivalent to obtaining standard concentrations of 0, 0.025, 0.05, 0.1, 0.2, 0.3, 0.4, and 0.5 mg/mL, respectively. b. An appropriate volume of sample was added to the sample wells of the 96-well plate. If the sample is less than 20 μL, the diluted standard solution should be added to make up to 20 μL. c. […] was added to each well and the well plate was set still at 37° C. for 20-30 min. d. The absorbance at A562 nm was determined with a microplate reader. e. The protein concentrations of the samples were calculated according to the standard curves and the sample volumes used.

SMILES | CC50 at 48 h [1] [µM] | IC50 (FXR) [µM] | CC50 at 48 h [2] [µM] | melting point [°C] | reduction of the increase in TG level of HepG2 cell induced by oleic acid and palmitate (HepG2 cells; 20 μM compound, 0.5 mmol/L FFA, FIG. 1A) | reduction of the increase in TC level of HepG2 cell induced by oleic acid and palmitate (HepG2 cells; 20 μM compound, 0.5 mmol/L FFA, FIG. 1B) | inhibitory effect on TC, dose dependence (HepG2 cells; HepG2, 20 μM, 40 μM, 80 μM) | inhibitory effect on TG, dose dependence (HepG2 cells; HepG2, 20 μM, 40 μM, 80 μM)
Cc1c(C(=O)O)oc2ccc(S(=O)(=O)N(CCc3ccccc3)c3ccc(Cc4ccccc4)cc3)cc12 [Example F27-S11, 3-methyl-5-(N-(4-benzylphenyl)-N-phenethylsulfamoyl)benzofuran-2-carboxylic acid] | > 160 | 0.1 to 10 | > 160 | 301 to 302 | – | – | – | –
Cc1c(C(=O)O)oc2ccc(S(=O)(=O)N(CCc3ccccc3)c3ccc(Oc4ccccc4)cc3)cc12 [Example F27-S12, 3-methyl-5-(N-(4-phenoxyphenyl)-N-phenethylsulfamoyl)benzofuran-2-carboxylic acid] | > 160 | 0.1 to 10 | > 160 | – | – | – | – | –
Cc1c(C(=O)O)oc2ccc(S(=O)(=O)N(CCc3ccccc3)c3ccccc3N3CCN(C(=O)c4ccccc4)CC3)cc12 [Example F27-S96] | > 160 | 0.1 to 10 | > 160 | 128 to 129 | significantly reduce | significantly reduce | dose-dependent to some extent | dose-dependent to some extent
Cc1c(C(=O)O)oc2ccc(S(=O)(=O)N(CCc3ccccc3)Cc3ccccc3N3CCN(C(=O)N(C)C)CC3)cc12 [Example F27-S101, 3-methyl-5-(N-(2-(4-(dimethylcarbamoyl)piperazin-1-yl)benzyl)-N-phenethylsulfamoyl)benzofuran-2-carboxylic acid] | > 160 | 0.1 to 10 | > 160 | 118 to 119 | – | – | – | –
Cc1c(C(=O)O)oc2ccc(S(=O)(=O)N(CCc3ccccc3)Cc3ccccc3N3CCN(C(=O)c4ccccc4)CC3)cc12 [Example F27-S105, 3-methyl-5-(N-(2-(4-benzoylpiperazin-1-yl)benzyl)-N-phenethylsulfamoyl)benzofuran-2-carboxylic acid] | > 160 | 0.1 to 10 | > 160 | 163 to 164 | – | – | – | –

From patent publication US20240239775A1, “FXR REGULATOR, PREPARATION METHOD THEREFOR, PHARMACEUTICAL COMPOSITION THEREOF AND USE THEREOF” (QINGDAO RUIJI MEDICAL TECHNOLOGY CO., LTD., priority 2021, published 2024)
